Measurements as given in US11000515B2, “Compounds that interact with the Ras superfamily for the treatment of cancers, inflammatory diseases, rasopathies, and fibrotic disease” (Shy Therapeutics LLC, priority 2017, dated 2021).
Read-outs that look alike come from different tables or passages of the source.

What was measured:
[1] = system: TNFα production in RAW 264.7 macrophage cell line; assay: Mouse TNF alpha quantification assay (LPS-stimulated RAW 264.7, ELISA); assay type: cell-based; settings: RAW264.7, LPS-stimulated RAW 264.7 macrophage cell line, read-out: TNF-α % Inhibition at 30 μM
[2] = system: IL6 production in RAW 264.7 macrophage cell line; assay: Mouse IL6 quantification assay (LPS-stimulated RAW 264.7, ELISA); assay type: cell-based; settings: RAW264.7, LPS-stimulated RAW 264.7 macrophage cell line, read-out: IL-6 % Inhibition at 30 μM
[3] = molecular target: KRas G12D/Q61H double mutant (Homo sapiens (Human), UniProt P01116, G12D/Q61H); assay: Ras GTP binding domain inhibition assay (labeled GTP)
Chain of KRas G12D/Q61H double mutant (P01116-2 other isoform, or with tags, fused parts or gaps G12D/Q61H): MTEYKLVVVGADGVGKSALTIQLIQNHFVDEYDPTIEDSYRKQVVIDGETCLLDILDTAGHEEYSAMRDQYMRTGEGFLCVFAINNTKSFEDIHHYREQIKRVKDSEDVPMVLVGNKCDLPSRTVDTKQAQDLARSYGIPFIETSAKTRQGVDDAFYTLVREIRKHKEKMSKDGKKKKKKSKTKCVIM
Protocol: (§1) Buffer-I: • 50 mM Tris, pH 7.5 • 150 mM NaCl (optional) • 1 mM MgCl2 • 1 mM DTT. • KRas G12D mutant protein was expressed as a His-tagged protein. Purified His-KRas G12D protein was diluted in buffer-I to a final concentration of 3-10 μg/ml. • 200 μl of the diluted His-KRas G12D protein was added to a nickel coated 96 well plate and incubated overnight at 4° C. • The next day, wells were washed 3× in 200 μl of Buffer-I. • Then 200 μl of Buffer-I were added to each well in the presence of 1% DMSO. • Tested compounds were added to the protein-coated wells at a concentration of 20 μM, and incubated for 3 hours at room temperature. While performing IC50 measurements a serial dilution of all tested concentrations was prepared.
(§2) Then 22 μl of Cy3-GTP or Cy5-GTP was added to each well. The labeled GTP was incubated for 45 min. at room temperature. • Following GTP incubation, wells were washed 3× in Buffer-I, and 200 μl of Buffer-I were added to each well. • Following washes, the amount of bound labeled-GTP was measured with an Eppendorf AF2200 plate reader.
(§3) By substituting KRas G12D mutant protein with KRas G12C mutant, KRas wild type, KRas Q61H mutant, KRas G12D/Q61H double mutant or KRas G12C/Q61H double mutant under the assay conditions described above, KRas G12C mutant KRas wild type, KRas Q61H mutant, KRas G12D/Q61H double mutant and KRas G12C/Q61H double mutant inhibition, respectively, were each determined.

KRas wild type = KRas wild type (Homo sapiens (Human), UniProt P01116); assay: as above
Chain of KRas wild type (P01116-2 other isoform, or with tags, fused parts or gaps): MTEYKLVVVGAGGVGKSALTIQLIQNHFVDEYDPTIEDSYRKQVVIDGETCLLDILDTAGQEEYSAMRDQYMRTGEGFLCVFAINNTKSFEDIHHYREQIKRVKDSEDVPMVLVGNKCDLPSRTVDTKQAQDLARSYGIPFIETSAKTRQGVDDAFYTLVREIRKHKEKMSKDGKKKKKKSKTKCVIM
Protocol: as §1, §2, §3

KRas G12C mutant = KRas G12C mutant (Homo sapiens (Human), UniProt P01116, G12C); assay: as above
Chain of KRas G12C mutant (P01116-2 other isoform, or with tags, fused parts or gaps G12C): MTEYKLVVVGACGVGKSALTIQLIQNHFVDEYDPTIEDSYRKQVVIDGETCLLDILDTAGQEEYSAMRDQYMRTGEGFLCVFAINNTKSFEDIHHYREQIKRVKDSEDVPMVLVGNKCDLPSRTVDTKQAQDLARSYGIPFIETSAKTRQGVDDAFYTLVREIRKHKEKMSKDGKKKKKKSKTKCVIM
Protocol: as §1, §2, §3

KRas G12D mutant protein = KRas G12D mutant protein (Homo sapiens (Human), UniProt P01116, G12D); assay: as above
Chain of KRas G12D mutant protein (P01116-2 other isoform, or with tags, fused parts or gaps G12D): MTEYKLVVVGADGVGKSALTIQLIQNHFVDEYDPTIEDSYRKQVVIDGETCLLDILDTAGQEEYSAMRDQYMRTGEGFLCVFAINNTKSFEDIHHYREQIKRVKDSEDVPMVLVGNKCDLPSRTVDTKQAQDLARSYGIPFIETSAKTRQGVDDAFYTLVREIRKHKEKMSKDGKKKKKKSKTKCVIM
Protocol: The following method was developed as specific assay for KRas G12D mutant protein.
as §1, §2

KRas Q61H mutant = KRas Q61H mutant (Homo sapiens (Human), UniProt P01116, Q61H); assay: as above; settings: 20 μM compound
Chain of KRas Q61H mutant (P01116-2 other isoform, or with tags, fused parts or gaps Q61H): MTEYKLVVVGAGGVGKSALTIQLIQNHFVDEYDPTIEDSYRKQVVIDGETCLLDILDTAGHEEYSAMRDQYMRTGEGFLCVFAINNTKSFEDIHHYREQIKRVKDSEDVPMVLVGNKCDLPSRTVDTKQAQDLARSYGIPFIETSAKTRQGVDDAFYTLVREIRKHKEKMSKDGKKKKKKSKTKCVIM
Protocol: as §1, §2, §3

[4] = 20 μM, read-out: KRas G12D Q61H % Inh.
[5] = compound at 20 μM, read-out: % Inhibition at 20 μM, KRas G12D Q61H
[6] = 20 μM compound, read-out: % Inhibition at 20 μM, KRas G12D Q61H

Row | Structure (SMILES) | inhibition at 30 µM [1] [%] | inhibition at 30 µM [2] [%] | further results
1 | O=C(CCc1cnn(-c2ccccc2)c1)Nc1nnc(-c2ccccn2)[nH]1 | 1 to 25 | 26 to 50 | –
2 | CC(C)C(=O)Nc1nc(CC(=O)Nc2nnc(-c3ccccc3)[nH]2)cs1 | 1 to 25 | 0 | –
3 | O=C(Nc1nnc(-c2ccccn2)s1)c1csc(-c2ccco2)n1 | 0 | 51 to 75 | –
4 | O=C(Nc1nc(-c2ccccn2)cs1)c1cccc(F)c1 | 0 | 1 to 25 | –
5 | COc1cccc(C(=O)Nc2nc(-c3ccccn3)cs2)c1 | 0 | 1 to 25 | –
6 | COc1ccc(C(=O)Nc2nc(-c3ccccn3)cs2)cn1 | 51 to 75 | 76 to 100 | –
7 | O=C(c1csc2c(O)nc(-c3ccccn3)nc12)N1CCN(c2ccccc2)CC1 | 51 to 75 | 76 to 100 | –
8 | Brc1csc2nc(-c3ccccn3)nc(Br)c12 | 76 to 100 | 76 to 100 | –
9 | COc1cc(CNc2nc(-c3ccccn3)nc3scc(-c4ccccc4)c23)ccc1OCC(N)=O | 76 to 100 | 76 to 100 | –
10 | CN(CC(=O)N1CCOCC1)c1nc(-c2ccccn2)nc2scc(-c3ccccc3)c12 | 1 to 25 | 1 to 25 | –
11 | COc1cc(CCNC(=O)c2csc3nc(-c4ccccn4)nc(N4CCOCC4)c23)ccn1 | 0 | 1 to 25 | –
12 | CC(C)(C(=O)Nc1cc(-c2ccccn2)nc2sccc12)c1ccc(C#N)cc1 | 1 to 25 | 76 to 100 | –
13 | O=C(c1csc2c(O)nc(-c3ccccn3)nc12)N1CCNC(Cc2cccc(F)c2)C1 (centres unmarked) | 1 to 25 | 26 to 50 | –
14 | O=C(NCCc1cnc(O)cn1)c1csc2nc(-c3ccccn3)nc(N3CCS(=O)(=O)CC3)c12 | 0 | 51 to 75 | –
15 | CC(C)COc1ccc(-c2csc3c(O)nc(-c4ccccn4)nc23)nc1 | 51 to 75 | 76 to 100 | –
16 | Nc1nc(-c2ccccn2)nc2scc(Br)c12 | 0 | 1 to 25 | –
17 | Nc1nc(-c2ccccn2)nc2c(-c3ccccn3)csc12 | 76 to 100 | 76 to 100 | –
18 | CN(C)Cc1cc(F)cc(-c2csc3c(O)nc(-c4ccccn4)nc23)c1 | 51 to 75 | 76 to 100 | –
19 | COCCNc1nc(-c2cccc(C)n2)nc2sc(-c3ccccc3)c(-c3ccccc3)c12 | 26 to 50 | 26 to 50 | –
20 | CC(C)COc1ccc(-c2csc3c(O)nc(-c4nccn4C)nc23)cn1 | 76 to 100 | 76 to 100 | –
21 | CC(C)c1ccc(NC(=O)CCc2c(O)cc(-c3ccccn3)nc2O)cc1 | – | – | inhibition at 20 µM [3, 4]: 51 to 75%
22 | CCN(CC)S(=O)(=O)c1cc(C)c(C)c(NC(=O)CCc2c(C)cc(-c3ccccn3)nc2O)c1 | – | – | inhibition at 20 µM [3, 4]: 51 to 75%
23 | CS(=O)(=O)CCCC(=O)N1CCCc2c(O)nc(-c3ccccn3)nc21 | – | – | KRas G12D Q61H % Inh. ([3]; 20 μM): C (C = 51-75% inhibition)
24 | O=C(CCCc1cccnc1)N1CCCc2c(O)nc(-c3ccccn3)nc21 | – | – | inhibition at 20 µM (KRas wild type; compound at 20 μM): 25 to 50%; inhibition at 20 µM (KRas G12C mutant; compound at 20 μM): 51 to 75%; inhibition at 20 µM [3, 5]: 51 to 75%; inhibition at 20 µM (KRas G12D mutant protein; compound at 20 μM): 51 to 75%
25 | O=C(c1csc2c(O)nc(-c3ccccn3)nc12)N1CCN(c2cccnc2)CC1 | – | – | inhibition at 20 µM (KRas wild type; compound at 20 μM): 76 to 100%; inhibition at 20 µM (KRas G12C mutant; compound at 20 μM): 25 to 50%; inhibition at 20 µM [3, 5]: 51 to 75%; inhibition at 20 µM (KRas G12D mutant protein; compound at 20 μM): 51 to 75%
26 | COc1ccc(CCOC(=O)Nc2ccnc(-c3ccccn3)n2)cn1 | – | – | inhibition at 20 µM [3, 5]: 25 to 50%

Row | Structure (SMILES) | inhibition at 30 µM [1] [%] | inhibition at 30 µM [2] [%] | further results
27 | Cc1cc2nc(-c3ccccn3)nc(O)c2s1 | – | – | inhibition at 20 µM (KRas wild type; compound at 20 μM): 25 to 50%; inhibition at 20 µM (KRas G12C mutant; compound at 20 μM): 1 to 25%
28 | Oc1nc(-c2ccccn2)nc2c(-c3ccccc3)csc12 | – | – | inhibition at 20 µM (KRas G12C mutant; compound at 20 μM): 1 to 25%
29 | COc1ccc(CCNC(=O)c2cc(S(=O)(=O)N3CCCCCC3)ccc2OC)cc1OC | – | – | inhibition at 20 µM [3, 5]: 25 to 50%
30 | CCOC(=O)c1sc(N(C2CC2)S(=O)(=O)c2cc(F)ccc2F)nc1C | – | – | inhibition at 20 µM [3, 5]: 25 to 50%
31 | Cc1sc2nc(-c3cnccn3)[nH]c(=O)c2c1-c1ccccc1 | – | – | inhibition at 20 µM [3, 5]: 25 to 50%
32 | N#Cc1ccc(C2CCCN2c2ccco2)cc1C(F)(F)F (centres unmarked) | – | – | inhibition at 20 µM [3, 5]: 1 to 25%
33 | Cc1ccc(OCc2nnc(SCC3CCCOC3)o2)cc1 (centres unmarked) | – | – | inhibition at 20 µM [3, 5]: 1 to 25%
34 | CC(NC(=O)c1csc(-c2ccccc2)n1)c1ccccn1 (centres unmarked) | – | – | inhibition at 20 µM [3, 6]: 1 to 25%
35 | O=C(NCC(F)(F)F)c1ccc(CN(Cc2cc(Cl)cc3c2OCOC3)C2CC2)cc1 | – | – | inhibition at 20 µM [3, 6]: 25 to 50%
36 | CCOc1cc(CN(C(=O)CCc2nc(-c3ccsc3)no2)C2CC2)ccc1OC(F)F | – | – | inhibition at 20 µM [3, 6]: 25 to 50%
37 | COCc1ccc(C2CCCN2c2ccc(C#N)c(C(F)(F)F)c2)o1 (centres unmarked) | – | – | inhibition at 20 µM [3, 6]: 25 to 50%
38 | CC(C)c1cnc(CN2CC(C)N(Cc3ncc(C(C)C)o3)c3ccccc32)o1 (centres unmarked) | – | – | inhibition at 20 µM [3, 6]: 25 to 50%
39 | COCCN(Cc1ccccc1)CC(O)OCC(c1ccc(OC)cc1)c1ccc(OC)cc1 (centres unmarked) | – | – | inhibition at 20 µM [3, 6]: 1 to 25%
40 | Cc1cc(OC(C)COc2ccc(Oc3ccccc3)cc2)ncc1C(F)(F)F (centres unmarked) | – | – | inhibition at 20 µM [3, 6]: 51 to 75%
41 | COc1cccc(-c2nc(C(=O)N3CCC(c4ccccc4)CC3)cs2)c1OC | – | – | inhibition at 20 µM [3, 6]: 25 to 50%
42 | Cc1ccccc1N(CC(=O)NCC1CCCCCCC1)S(C)(=O)=O | – | – | inhibition at 20 µM [3, 6]: 1 to 25%
43 | OCC1(Cc2ccccc2)CCCN1c1nc(-c2ccccc2)nc2c1CCC2 (centres unmarked) | – | – | inhibition at 20 µM [3, 6]: 25 to 50%
44 | Oc1nc(-c2ccccn2)nc2c(C3CCCC3)csc12 | – | – | % Inhibition at 20 μM, KRas Q61H (KRas Q61H mutant): D (D = 76-100% inhibition)
45 | Oc1nc(-c2ccccn2)nc(Oc2cccc(C(F)(F)F)c2)c1O | – | – | % Inhibition at 20 μM, KRas G12C (KRas G12C mutant; 20 μM compound): B (B = 25-50% inhibition)
46 | COCCNc1nc(-c2nccn2C)nc2sc(-c3ccccc3)c(-c3ccccc3)c12 | – | – | inhibition at 20 µM (KRas G12D mutant protein; 20 μM compound): 0%
47 | Cc1sc2c(O)nc(-c3nccn3C)nc2c1-c1ccccc1Cl | – | – | inhibition at 20 µM (KRas wild type; 20 μM compound): 25 to 50%; inhibition at 20 µM (KRas G12C mutant; 20 μM compound): 1 to 25%
48 | COCCNc1nc(-c2nccn2C)nc2sc(-c3ccccc3)c(-c3cccnc3)c12 | – | – | inhibition at 20 µM (KRas wild type; 20 μM compound): 51 to 75%; inhibition at 20 µM (KRas G12C mutant; 20 μM compound): 25 to 50%; inhibition at 20 µM (KRas G12D mutant protein; 20 μM compound): 25 to 50%
49 | COc1ccccc1OCC(=O)Nc1nnc(-c2ccccn2)[nH]1 [drawing 2004] | 0 | 26 to 50 | –
50 | CCC(C)c1csc2c(O)nc(-c3ccccn3)nc12 (centres unmarked) [drawing 2332] | 1 to 25 | 26 to 50 | –
51 | COc1ccccc1OCC(=O)Nc1nnc(-c2ccccn2)[nH]1 [drawing 2552] | – | – | inhibition at 20 µM [3, 4]: 51 to 75%
